US10479814B2, “Adenosine receptor activation reagent and the uses of thereof” (Zhejiang Subtropical Crops Research Institute, priority 2014, dated 2019)
Entries after “also recorded” stand apart in the source; their conditions may differ.

Assays:
[1] = test system: mouse PD model induced by MPTP; test: MPTP induced mouse PD model: TH positive cells in substantia nigra; assay type: in vivo; conditions: MPTP 30 mg/kg mice; Cordyceps cicadae extract 1500 mg/kg; HEA 10 mg/kg ip; 14 days
Description: 24±1 g male C57BL/6 mice were randomly divided into six groups: control group, model group, Cordyceps cicadae extract group (1500 mg/kg) (the extract method can refer to Example 3), HEA (5 mg/kg, 10 mg/kg, 15 mg/kg) group. Using mouse PD model induced by 1-methyl-4-phenyl-[…] (MPTP), in Cordyceps cicadae crude extract group and HEA with different concentration group were respectively peritoneal injected for consecutive 14 days, and at Day 11, before 1 hour of drug administration, MPTP 30 mg/kg was peritoneally injected, for consecutive 4 days, after one day after the last administration, a behavior test of pole-climbing ability was conducted, after 4 days the rat wad killed by puling neck and the striatum was removed. […]
After completion of behaviour detection, the heart was perfuse with 4% paraformaldehyde and the brain was removed, fixed, desiccated, embedded, and different parts in substantia nigra region were removed for coronal sectioned, tyrosine hydroxylase was used as specific marker for the neuron. The primary antibody is monoclonal mouse TH antibody (1;1000, Sigma), and the secondary antibody is Alexa fluor 488 fluorescence labeling goat anti-mouse (1;1000, Molecular Probes). Taking photo by a fluorescence microscope, and the TH positive cell in the substantia nigra were counted.

[2] = biological target: T1, rat cerebral cortex adenosine A1 receptor (Rattus norvegicus, UniProt P25099); test: adenosine A1 receptor ligand binding test ([3H]DPCPX)
T1 construct: DPCPX; from tissue; host or cells: Wistar rat cerebral cortex
T1 sequence (P25099 1-326): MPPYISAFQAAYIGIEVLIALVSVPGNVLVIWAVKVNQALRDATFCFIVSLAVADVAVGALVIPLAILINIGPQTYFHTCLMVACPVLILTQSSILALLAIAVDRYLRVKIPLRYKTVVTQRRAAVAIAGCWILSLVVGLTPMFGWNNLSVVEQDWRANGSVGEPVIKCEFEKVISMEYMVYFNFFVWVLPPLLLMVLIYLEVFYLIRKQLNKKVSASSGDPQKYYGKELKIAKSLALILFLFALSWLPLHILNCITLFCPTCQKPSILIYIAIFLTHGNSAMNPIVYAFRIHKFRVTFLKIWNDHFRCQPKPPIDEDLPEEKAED

[3] = test system: rat middle cerebral artery distal obstruction cerebral ischemia model; test: dMCAO cerebral ischemia: infarct size by TTC staining; assay type: in vivo; conditions: HEA 7.5 mg/kg ip, 24 hours after modeling, vs model group
[4] = test system: mouse PD model induced by MPTP; test: MPTP induced mouse PD model: pole-climbing method; assay type: in vivo; conditions: MPTP 30 mg/kg mice; Cordyceps cicadae extract 1500 mg/kg; HEA 10 mg/kg ip; 14 days
Description: 24±1 g male C57BL/6 mice were randomly divided into six groups: control group, model group, Cordyceps cicadae extract group (1500 mg/kg) (the extract method can refer to Example 3), HEA (5 mg/kg, 10 mg/kg, 15 mg/kg) group. Using mouse PD model induced by 1-methyl-4-phenyl-[…] (MPTP), in Cordyceps cicadae crude extract group and HEA with different concentration group were respectively peritoneal injected for consecutive 14 days, and at Day 11, before 1 hour of drug administration, MPTP 30 mg/kg was peritoneally injected, for consecutive 4 days, after one day after the last administration, a behavior test of pole-climbing ability was conducted, after 4 days the rat wad killed by puling neck and the striatum was removed. The control group was given same amount of normal saline, the model group at Day 11, one hour before the normal saline was given, MPTP 30 mg/kg was peritoneally injected, for four consecutive days.
Heading down, the mouse was placed onto top of a wooden pole with a length of 50 cm, diameter of 10 mm, the time for the mouse clime from top to bottom along the pole was record, the time difference between before and after the modeling was calculate, and analyzed statistically.

OCCNc1ncnc2c1ncn2[C@@H]1O[C@H](CO)[C@@H](O)[C@H]1O [HEA, N(6)-(2-hydroxyethyl)-adenosine]
number of the TH positive cells in substantia nigra [1]: increase number of the TH positive cells
affinity to adenosine A1 receptor relative to adenosine A2A receptor ([2]; A1 versus A2A): 100 fold
selectivity to A1 receptor (in words) ([2]; A1 versus A2A binding): high selectivity to A1 receptor
Ki ([2]; rat cerebral cortex homogenate, 0.2 nM [3H]DPCPX, 25° C. 30 min, read-out: Ki value of competitive binding with the adenosine A1 receptor): 89.5 nM
infarct size (TTC staining) [3]: significantly reduce cerebral infarction area; also recorded: significantly reduce the infarct size of the injured brain
multilimb coordination ability (pole-climbing) [4]: improve multilimb coordination ability of mouse to different degree
